Reference: patent US20220242870A1, “HETEROCYCLE-FUSED PYRIMIDINE DERIVATIVE AND USE THEREOF” (VORONOI Inc., priority 2019, published 2022)

Columns and labels:
human GST-HPK1 (1-346) = biological target: T1, human GST-HPK1 (1-346) (Homo sapiens, UniProt Q92918); assay: HPK1 enzyme inhibitory ability (ADP-Glo kinase assay); format: biochemical; conditions: human GST-HPK1 3 ng, ATP 3 uM, 25° C. 2 hours
T1 construct: purified human GST-HPK1 (1-346, Signalchem) enzyme; purchased Signalchem
T1 sequence (Q92918 1-346): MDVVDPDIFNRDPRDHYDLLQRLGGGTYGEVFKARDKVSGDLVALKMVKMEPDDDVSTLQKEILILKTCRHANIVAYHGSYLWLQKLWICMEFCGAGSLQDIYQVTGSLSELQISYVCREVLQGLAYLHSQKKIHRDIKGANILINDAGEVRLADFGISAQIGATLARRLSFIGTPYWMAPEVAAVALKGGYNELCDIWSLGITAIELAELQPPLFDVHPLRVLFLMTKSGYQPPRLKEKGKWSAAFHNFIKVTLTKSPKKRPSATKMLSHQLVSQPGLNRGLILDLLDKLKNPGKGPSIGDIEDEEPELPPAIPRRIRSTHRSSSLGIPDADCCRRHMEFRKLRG
Method in brief: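 Human GST-HPK1(1-346), 3 ng, reacted with 3 uM ATP and specific substrate in 40 mM Tris-HCl pH 7.4, 20 mM MgCl2, 0.5 mg/mL BSA, 50 uM DTT for 2 h at 25° C. ADP-Glo luminescence read; IC50 (nM) relative to untreated solvent control.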

MV4-11 cells = assay: AML cell proliferation inhibitory activity (CellTiter-Glo); format: cell-based; conditions: Homo sapiens, 72 hours
Method in brief: (§1)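 RS4;11 and MV4-11 cells in RPMI-1640 with 10% FBS, seeded 24 h before treatment, then exposed 72 h to 12 three-fold dilutions (0.3 nM–50 μM final). Viability by CellTiter-Glo luminescence relative to solvent control; GI50 from triplicate experiments.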

RS4;11 cells = assay: as above; format: cell-based; conditions: Homo sapiens, 72 hours
Method in brief: as §1

MCF-7 cells = assay: Breast cancer cell line proliferation inhibitory activity (CellTiter-Glo 2.0); format: cell-based; conditions: Homo sapiens, MCF7, 120 hours
Method in brief: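 MCF-7 cells exposed to a 12-point, 3-fold dilution series (final 0.00005–10 μM) for 120 h at 37 °C. Viability read by CellTiter-Glo 2.0 luminescence, expressed as percent of vehicle-treated cells. GI50 (nM) derived from the curves.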

human FLT3-ITD enzyme = biological target: T2, human FLT3-ITD enzyme (Homo sapiens, UniProt P36888); assay: FLT3 enzyme inhibitory ability (ADP-Glo kinase assay); format: biochemical; conditions: human FLT3-ITD enzyme 10 ng, ATP 10 μM, 25° C. 1 hour
T2 sequence (P36888 1-993): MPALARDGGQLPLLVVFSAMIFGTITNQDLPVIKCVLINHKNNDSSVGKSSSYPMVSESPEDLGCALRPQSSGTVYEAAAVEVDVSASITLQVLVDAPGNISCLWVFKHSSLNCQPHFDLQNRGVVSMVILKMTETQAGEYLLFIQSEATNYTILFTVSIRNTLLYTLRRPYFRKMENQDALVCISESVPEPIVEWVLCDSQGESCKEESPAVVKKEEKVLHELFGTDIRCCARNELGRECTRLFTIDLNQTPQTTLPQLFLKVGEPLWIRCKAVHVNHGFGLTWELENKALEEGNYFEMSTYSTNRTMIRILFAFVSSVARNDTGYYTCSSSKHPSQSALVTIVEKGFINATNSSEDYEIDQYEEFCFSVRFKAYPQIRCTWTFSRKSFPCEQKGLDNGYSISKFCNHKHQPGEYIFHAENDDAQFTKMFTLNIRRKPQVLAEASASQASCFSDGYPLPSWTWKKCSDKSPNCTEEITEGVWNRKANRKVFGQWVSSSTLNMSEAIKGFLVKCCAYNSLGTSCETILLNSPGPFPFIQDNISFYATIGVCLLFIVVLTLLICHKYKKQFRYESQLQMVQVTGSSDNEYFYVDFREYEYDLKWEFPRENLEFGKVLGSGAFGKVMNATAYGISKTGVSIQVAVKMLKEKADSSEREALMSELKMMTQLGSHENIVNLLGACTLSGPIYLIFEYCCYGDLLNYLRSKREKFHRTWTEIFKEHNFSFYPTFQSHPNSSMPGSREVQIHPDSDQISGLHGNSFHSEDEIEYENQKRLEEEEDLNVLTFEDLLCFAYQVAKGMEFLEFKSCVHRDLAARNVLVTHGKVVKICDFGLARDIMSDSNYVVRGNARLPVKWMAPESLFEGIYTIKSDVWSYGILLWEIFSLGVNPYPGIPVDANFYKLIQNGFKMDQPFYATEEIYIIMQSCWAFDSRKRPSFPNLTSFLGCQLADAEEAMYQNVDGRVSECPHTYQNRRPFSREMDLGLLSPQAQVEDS
Method in brief: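 Purified human FLT3-ITD (10 ng) with 10 μM ATP and specific substrate in 40 mM Tris-HCl pH 7.4, 20 mM MgCl2, 0.5 mg/mL BSA, 50 μM DTT, 1 h at 25 °C. ADP formation read by ADP-Glo luminescence; IC50 (nM) versus solvent-treated control.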

CDK4-cyclinD1 = CDK4-cyclinD1 (Homo sapiens, UniProt P11802); assay: CDK4 enzyme inhibitory ability (Reaction Biology); format: biochemical; set-up: purchased Reaction Biology (USA), contract assay; conditions: measured in Reaction Biology (USA)
Protocol: (§2) In order to evaluate the CDK4 and CDK6 enzyme inhibitory activities of the example compounds according to the present invention, IC5O (nM) was measured for the CDK4 cyclin D1 and CDK6 cyclin D1 enzymes in Reaction Biology (USA), and the results were shown in Table 3 below.

CDK6 cyclin D1 = biological target: T3, CDK6 cyclin D1 (Homo sapiens, UniProt Q00534); assay: CDK6 enzyme inhibitory ability (Reaction Biology); format: biochemical; conditions: measured in Reaction Biology (USA)
T3 construct: purchased Reaction Biology (USA), contract assay
Protocol: as §2

CDK4-cyclinD1, sequence (P11802 whole entry): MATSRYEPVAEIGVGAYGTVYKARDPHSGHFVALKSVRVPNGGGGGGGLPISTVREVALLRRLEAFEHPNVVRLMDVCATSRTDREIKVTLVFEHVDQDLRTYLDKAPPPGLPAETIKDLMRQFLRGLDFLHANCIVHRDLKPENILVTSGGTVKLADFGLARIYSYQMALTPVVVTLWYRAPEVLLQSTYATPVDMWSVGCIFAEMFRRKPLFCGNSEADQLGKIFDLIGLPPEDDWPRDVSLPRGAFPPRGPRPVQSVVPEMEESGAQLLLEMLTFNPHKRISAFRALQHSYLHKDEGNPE
CDK4-cyclinD1, sequence (P24385 whole entry partner): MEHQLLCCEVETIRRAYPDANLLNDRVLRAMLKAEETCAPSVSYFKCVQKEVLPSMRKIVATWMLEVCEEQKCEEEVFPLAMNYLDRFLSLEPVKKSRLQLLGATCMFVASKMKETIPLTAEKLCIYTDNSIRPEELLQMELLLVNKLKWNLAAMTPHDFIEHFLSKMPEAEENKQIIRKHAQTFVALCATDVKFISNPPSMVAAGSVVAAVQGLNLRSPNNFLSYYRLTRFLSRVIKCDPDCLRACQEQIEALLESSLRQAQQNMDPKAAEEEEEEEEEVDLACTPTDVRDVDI
T3 sequence (Q00534 whole entry): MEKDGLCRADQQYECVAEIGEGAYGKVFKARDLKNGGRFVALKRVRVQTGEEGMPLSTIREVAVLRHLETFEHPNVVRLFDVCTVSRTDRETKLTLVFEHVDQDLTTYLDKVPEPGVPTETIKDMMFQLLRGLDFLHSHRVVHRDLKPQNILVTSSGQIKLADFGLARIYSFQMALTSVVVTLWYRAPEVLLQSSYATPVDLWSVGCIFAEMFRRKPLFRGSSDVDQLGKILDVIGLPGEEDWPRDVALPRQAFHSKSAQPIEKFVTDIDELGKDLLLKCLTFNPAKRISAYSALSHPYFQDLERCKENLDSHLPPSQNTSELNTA
T3 sequence (P24385 whole entry partner): as the sequence (P24385 whole entry partner) above

Row | SMILES | IC50 (human GST-HPK1 (1-346)) | GI50 (MV4-11 cells) | GI50 (RS4;11 cells) | GI50 (MCF-7 cells) | IC50 (human FLT3-ITD enzyme) | IC50 (CDK4-cyclinD1) | IC50 (CDK6 cyclin D1)
1 | CCN(CC)CCOc1ccc(Nc2nc(N3N=CCC3c3ccccc3)c3sccc3n2)cc1 (stereo not drawn) [Example 45, N-(4-(2-(diethylamino)ethoxy)phenyl)-4-(5-phenyl-4,5-dihydro-1H-pyrazol-1-yl)thieno[3,2-d]pyrimidin-2-amine] | > 500 nM | 250 to 500 nM | > 500 nM | > 500 nM | 250 to 500 nM | – | –
2 | CCN(CC)CCCOc1ccc(Nc2nc(N3N=CCC3c3ccccc3)c3sccc3n2)cc1 (stereo not drawn) [Example 47, N-(4-(3-(diethylamino)propoxy)phenyl)-4-(5-phenyl-4,5-dihydro-1H-pyrazol-1-yl)thieno[3,2-d]pyrimidin-2-amine] | > 500 nM | ≥ 250 nM | > 500 nM | > 500 nM | 250 to 500 nM | – | –
3 | CCN(CC)CCCOc1c(C)cc(Nc2nc(N3N=CCC3c3ccccc3)c3sccc3n2)cc1C (stereo not drawn) [Example 48, N-(4-(3-(diethylamino)propoxy)-3,5-dimethylphenyl)-4-(5-phenyl-4,5-dihydro-1H-pyrazol-1-yl)thieno[3,2-d]pyrimidin-2-amine] | > 500 nM | > 500 nM | > 500 nM | > 500 nM | > 500 nM | – | –
4 | CN1CCN(c2ccc(Nc3nc(N4OCC[C@H]4c4ccccc4)c4c(C(F)(F)F)c[nH]c4n3)cc2)CC1 [Example 123, (S)-N-(4-(4-methylpiperazin-1-yl)phenyl)-4-(3-phenylisoxazolidin-2-yl)-5-(trifluoromethyl)-7H-pyrrolo[2,3-d]pyrimidin-2-amine] | > 500 nM | > 500 nM | – | > 500 nM | ≥ 250 nM | ≥ 250 nM | ≥ 250 nM

Continued, values first:

Row | IC50 (human GST-HPK1 (1-346)) | GI50 (MV4-11 cells) | GI50 (RS4;11 cells) | GI50 (MCF-7 cells) | IC50 (human FLT3-ITD enzyme) | IC50 (CDK4-cyclinD1) | IC50 (CDK6 cyclin D1) | SMILES
5 | > 500 nM | ≥ 250 nM | > 500 nM | > 500 nM | > 500 nM | – | – | CN(C)[C@H]1CCN(c2ccc(Nc3nc(N4N=CCC4c4ccccc4)c4sccc4n3)cc2)C1 (stereo partly drawn) [Example 44, N-(4-((S)-3-(dimethylamino)pyrrolidin-1-yl)phenyl)-4-(5-phenyl-4,5-dihydro-1H-pyrazol-1-yl)thieno[3,2-d]pyrimidin-2-amine]
6 | ≥ 250 nM | ≥ 250 nM | > 500 nM | > 500 nM | 250 to 500 nM | – | – | CCN1CCN(c2ccc(Nc3nc(N4OCC[C@H]4c4ccccc4)c4cc[nH]c4n3)cc2)CC1 [Example 79, (S)-N-(4-(4-ethylpiperazin-1-yl)phenyl)-4-(3-phenylisoxazolidin-2-yl)-7H-pyrrolo[2,3-d]pyrimidin-2-amine]
7 | ≥ 250 nM | ≥ 250 nM | ≥ 250 nM | > 500 nM | ≥ 250 nM | – | – | CN1CCN(C2CCN(c3ccc(Nc4nc(N5OCC[C@H]5c5ccccc5)c5cc[nH]c5n4)cc3)CC2)CC1 [Example 84, (S)-N-(4-(4-(4-methylpiperazin-1-yl)piperidin-1-yl)phenyl)-4-(3-phenylisoxazolidin-2-yl)-7H-pyrrolo[2,3-d]pyrimidin-2-amine]
8 | ≥ 250 nM | > 500 nM | – | > 500 nM | ≥ 250 nM | ≥ 250 nM | ≥ 250 nM | CN1CCN(c2ccc(Nc3nc(N4OCC[C@H]4c4ccccc4)c4c(Cl)c[nH]c4n3)cc2)CC1 [Example 116, (S)-5-chloro-N-(4-(4-methylpiperazin-1-yl)phenyl)-4-(3-phenylisoxazolidin-2-yl)-7H-pyrrolo[2,3-d]pyrimidin-2-amine]
9 | ≥ 250 nM | > 500 nM | – | > 500 nM | ≥ 250 nM | ≥ 250 nM | ≥ 250 nM | CN1CCN(c2ccc(Nc3nc(N4OCC[C@H]4c4ccccc4)c4c(C#N)c[nH]c4n3)cc2)CC1 [Example 118, (S)-2-((4-(4-methylpiperazin-1-yl)phenyl)amino)-4-(3-phenylisoxazolidin-2-yl)-7H-pyrrolo[2,3-d]pyrimidine-5-carbonitrile]
